Source: patent US20170052172A1, “IMMUNE HEPATOTOXICITY SCREENING METHOD USING HEPATOCYTES DERIVED FROM HUMAN STEM CELLS” (KOREA ADVANCED INSTITUTE OF SCIENCE AND TECHNOLOGY, priority 2014, published 2017)

Key:
[1] = tested on: human hepatocytes (hES15); test: Cytokine ELISA secretion profiling of human hepatocytes after drug treatment
Description: Upon completion of the culture, the maturation of hepatocytes was induced by the same manner as described in Example 1 and then the matured hepatocytes were obtained (FIG. 1).
(§1) Particularly, the hepatocytes at 19th day of the differentiation from human stem cells, which were prepared by the method described in Example 1, were distributed in a 6-well plate (90%/well), and then the medium was replaced with 1000 mg/L DMEM-low glucose medium (Dulbecco's Modified Eagle's Medium, Welgene No. 001-11), followed by culture for 2 hours. Then, the stem cell derived hepatocyte culture medium was obtained. To eliminate by-products of the cell culture, centrifugation was performed at 12,000×g, for 20 minutes at 4° C. Supernatant was obtained. The capture antibodies, 2.5 μg/ml anti-IL-1β antibody, 2 μg/ml anti-IL-6 antibody, 2.5 μg/ml anti-IL-10 antibody, 2 μg/ml anti-IL-12 antibody, 1 μg/ml anti-TNF-α antibody, 2 μg/ml anti-IFN-α antibody, 1 μg/ml anti-IFN-β antibody, and 2 μg/ml anti-TGF-β antibody, were cultured at 37° C. for 2 hours, with which 96-well ELISA plate was coated. The plate was washed, followed by blocking with 0.2% I-block (Foster city, CA) at 37° C. for 2 hours. Upon completion of the blocking, the capture antibodies were washed and cultured with a standard material (2 fold serial diluted in protein free flexible plate from 10 ng/ml to 4.88 pg/ml) and the supernatant in ELISA plate (Greiner, Kremsmunster, Austria) at 37° C. for 2 hours. Upon completion of the culture, the biotinylated detection antibodies (anti-IL-1β antibody: 2 μg/ml, anti-IL-6 antibody: 1 μg/ml, anti-IL-10 antibody: 1 μg/ml, anti-IL-12 antibody: 1 μg/ml, anti-TNF-α antibody: 1 μg/ml, anti-IFN-α antibody: 4 μg/ml, anti-IFN-β antibody: 2 μg/ml, anti-TGF-β antibody: 1 μg/ml, final concentration) were added thereto, followed by further culture at 37° C. for 2 hours. Then, alkaline phosphatase conjugated streptavidin was added thereto, followed by further culture at room temperature for 30 minutes. 5 mM nitrophenyl phosphate substrate was added thereto, and OD405 was measured by using ELISA reader.
Particularly, the hepatocytes at 19th day of the differentiation from human stem cells, which were prepared by the method described in Example 1, were distributed in a 6-well plate (90%/well), and then the medium was replaced with 1000 mg/L DMEM-low glucose medium (Dulbecco's Modified Eagle's Medium, Welgene No. 001-11), followed by culture for 2 hours. […] Then, culture fluids of the hepatocytes differentiated from stem cells and the human hepatocytes were obtained to extract immunotoxic materials therefrom. To eliminate by-products of the cultured cells, centrifugation was performed at 12,000×g for 20 minutes at 4° C., and then supernatant was obtained. […]

[2] = tested on: hepatocytes differentiated from human embryonic stem cells (hESC4); test: Cytokine ELISA secretion profiling of stem cell derived hepatocytes after drug treatment; settings: ELISA of supernatant
Description: as §1
(§2) Particularly, the hepatocytes at 19th day of the differentiation from human stem cells, which were prepared by the method described in Example 1, were distributed in a 6-well plate (90%/well), and then the medium was replaced with 1000 mg/L DMEM-low glucose medium (Dulbecco's Modified Eagle's Medium, Welgene No. 001-11), followed by culture for 2 hours.

[3] = tested on: hepatocytes differentiated from human embryonic stem cells (hESC4)
Description: as §1, §2

[4] = CCl4 0, 5, 10, 20 mM for 24 hours, ELISA of supernatant
[5] = CCl4 0, 5, 10, 20 mM for 24 hours

| SMILES | IFN-α detected [1, 4] | IL-10 detected [1, 4] | cytokine secretion compared with hepatocytes differentiated from stem cells ([1]; considering the smaller number of human hepatocytes, CCl4: cytokines, acetaminophen: IL-6 and IFN-β) | IL-6 detected ([1]; treatment for 24 hours (CCl4 0, 5, 10, 20 mM; acetaminophen 0, 10, 20 mM), ELISA of supernatant) | IFN-α detected [2, 5] | IL-10 detected [2, 5] | IL-6 detected ([2]; treatment for 24 hours (CCl4 0, 5, 10, 20 mM; acetaminophen 0, 10, 20 mM)) | ethanol induced toxic reaction [3] |
| --- | --- | --- | --- | --- | --- | --- | --- | --- |
| ClC(Cl)(Cl)Cl [CCl4] | also detected in the cells | also detected in the cells | secreted more in human hepatocytes | also detected in the cells | detected in the cells CCl4 dose dependently | detected in the cells CCl4 dose dependently | detected in the cells CCl4 dose dependently |  |
| CCO [ethanol] |  |  |  |  |  |  |  | did not show ethanol induced toxic reaction |
